Structures can show the parent of a compound that is named as a salt. Where two headings read alike, the source gives them in different places.

In assay [1] the target is T1, SARS-CoV-2 PLpro (nsp3 1564–1878) (Severe acute respiratory syndrome coronavirus 2, UniProt P0DTD1). Kind of assay: biochemical. Set-up: FRET-quenched peptide (Pro3) cleavage by PLpro, 10 min pre-incubation, slope over 20 min, normalised to no-compound control. As to conditions: read-out: % of control remaining.
Assay [2] has as its target T1, SARS-CoV-2 PLpro (nsp3 1564–1878). Kind of assay: biochemical. Set-up: FRET-quenched peptide (Pro3) cleavage by PLpro, 10 min pre-incubation, slope over 20 min, normalised to no-compound control. As to conditions: read-out: % of control remaining. This is another data set of the same source.

Turning to `CCN(CCCCO)C(C)Cc1ccc(O)cc1` (centres unmarked) [O-desmethyl Mebeverine alcohol (hydrochloride)], the remaining activity at 1.25 µM in assay [1] (Well no.=8489, low concentration screen) came out at 94.7%. Also, the remaining activity at 3.75 µM in assay [2] (Well no.=8489, high concentration screen) came to 99.4%.

In the case of `Cc1c(Cc2ccc3ccccc3n2)c2cc(F)ccc2n1CC(=O)O` [OC000459], the remaining activity at 1.25 µM in assay [1] (Well no.=7765, low concentration screen) amounted to 108%. Moreover, the remaining activity at 3.75 µM in assay [2] (Well no.=7765, high concentration screen) worked out at 105%.

For `COc1cc(C(=O)N(CCCc2ccccc2)Cc2ccc(CC(=O)O)cc2)cc(OC)c1C` [ONO-7300243], the remaining activity at 1.25 µM in assay [1] (Well no.=7711, low concentration screen) turned out to be 101%. The remaining activity at 3.75 µM in assay [2] (Well no.=7711, high concentration screen) turned out to be 103%.

Regarding `CC(C(=O)Nc1cc(C#N)ccc1CCCC(=O)O)c1ccc(F)c2ccccc12` (centres unmarked) [ONO-AE3-208], the remaining activity at 1.25 µM in assay [1] (Well no.=7279, low concentration screen) was 98.9%. In assay [2] (Well no.=7279, high concentration screen), the remaining activity at 3.75 µM was found to be 94.1%.

For the molecule `COc1ccc(C[C@H](NC(=O)[C@H](C)NC(=O)CN2CCOCC2)C(=O)N[C@@H](Cc2ccccc2)C(=O)[C@@]2(C)CO2)cc1` [ONX-0914 (PR-957)], the remaining activity at 1.25 µM in assay [1] (Well no.=9126, low concentration screen) turned out to be 90%. For the same molecule, the remaining activity at 3.75 µM in assay [2] (Well no.=9126, high concentration screen) was found to be 93.6%.

In the case of `COc1cccc2cc(-c3nc([C@H]4CC[C@H](C(=O)O)CC4)n4ncnc(N)c34)[nH]c12` [OSI-027], the remaining activity at 1.25 µM in assay [1] (Well no.=4960, low concentration screen) turned out to be 99.2%. Moreover, the remaining activity at 3.75 µM in assay [2] (Well no.=4960, high concentration screen) was found to be 95.6%.

Take `C#Cc1cccc(Nc2ncnc3cc(OCCOC)c(OCCO)cc23)c1` [OSI-420]: the remaining activity at 1.25 µM stood at 99.2% in assay [1] (Well no.=4822, low concentration screen) and 102% in assay [1] (Well no.=5152, low concentration screen). Moreover, the remaining activity at 3.75 µM in assay [2] (Well no.=4822, high concentration screen) turned out to be 101%; in assay [2] (Well no.=5152, high concentration screen), 97.4%.

`O=C(Nc1ccc(OC(F)(F)F)cc1)c1sccc1NCc1ccnc2ccccc12` [OSI-930]: in assay [1] (Well no.=4755, low concentration screen), the remaining activity at 1.25 µM was found to be 105%. Besides, in assay [2] (Well no.=4755, high concentration screen), the remaining activity at 3.75 µM is 103%.

Regarding `CNC(=O)CCc1cc(-c2ccc(-c3ccc(C(F)(F)F)cc3)cc2)nn1-c1ccc(N2CCNCC2)cc1` [OSU-T315], the remaining activity at 1.25 µM in assay [1] (Well no.=7022, low concentration screen) turned out to be 92.9%. In addition, the remaining activity at 3.75 µM in assay [2] (Well no.=7022, high concentration screen) was found to be 93.8%.

With `COC1=CC(c2cc3ccccc3[nH]2)=N/C1=C\c1[nH]c(C)cc1C` [Obatoclax mesylate (GX15-070)], in assay [1] (Well no.=4619, low concentration screen), the remaining activity at 1.25 µM was 95.3%. Further, in assay [2] (Well no.=4619, high concentration screen), the remaining activity at 3.75 µM is 98.7%.

Consider `CC[C@H]1[C@@H](O)[C@@H]2[C@H](CC[C@]3(C)[C@@H]([C@H](C)CCC(=O)O)CC[C@@H]23)[C@@]2(C)CC[C@@H](O)C[C@@H]12` [Obeticholic Acid], for which the remaining activity at 1.25 µM in assay [1] (Well no.=8720, low concentration screen) was 90.8%. For the same molecule, the remaining activity at 3.75 µM in assay [2] (Well no.=8720, high concentration screen) was 93%.

For `C[C@@H]1Cc2c(Cl)cc(C(=O)N[C@@H](Cc3ccccc3)C(=O)O)c(O)c2C(=O)O1` [Ochratoxin A], the remaining activity at 1.25 µM in assay [1] was 92.5%. For the same molecule, the remaining activity at 3.75 µM in assay [2] worked out at 92.8%.

Consider `CCCCCCCCCCCCCCCCCC(=O)O` [Octadecanoic acid], for which the remaining activity at 1.25 µM in assay [1] (Well no.=4314, low concentration screen) came out at 101%. Also, in assay [2] (Well no.=4314, high concentration screen), the remaining activity at 3.75 µM was 96.8%.

Regarding `O=C(O)CCCCCCC(=O)O` [Octanedioic acid], the remaining activity at 1.25 µM in assay [1] (Well no.=6931, low concentration screen) turned out to be 108%. The remaining activity at 3.75 µM in assay [2] (Well no.=6931, high concentration screen) came to 103%.

As for `CCCCCCCC(=O)O` [Octanoic acid], in assay [1] (Well no.=6591, low concentration screen), the remaining activity at 1.25 µM is 104%. In assay [2] (Well no.=6591, high concentration screen), the remaining activity at 3.75 µM was 110%.

For `NCC(O)c1ccc(O)cc1` (centres unmarked) [Octopamine (hydrochloride)], the remaining activity at 1.25 µM in assay [1] (Well no.=6713, low concentration screen) is 98.8%. Moreover, the remaining activity at 3.75 µM in assay [2] (Well no.=6713, high concentration screen) worked out at 98.6%.

For the molecule `C[C@@H](O)[C@@H]1NC(=O)[C@H](CCCCN)NC(=O)[C@@H](Cc2c[nH]c3ccccc23)NC(=O)[C@H](Cc2ccccc2)NC(=O)[C@@H](NC(=O)[C@H](N)Cc2ccccc2)CSSC[C@@H](C(=O)N[C@H](CO)[C@@H](C)O)NC1=O` [Octreotide (acetate)], the remaining activity at 1.25 µM turned out to be 92.6% in assay [1] (Well no.=6556, low concentration screen) and 97.5% in assay [1] (Well no.=7396, low concentration screen). In addition, the remaining activity at 3.75 µM in assay [2] (Well no.=6556, high concentration screen) turned out to be 94.1%; in assay [2] (Well no.=7396, high concentration screen) it was 93.2%.

The values above are taken from paper PMC8286840, “Identifying SARS-CoV-2 antiviral compounds by screening for small molecule inhibitors of Nsp3 papain-like protease” (Biochemical Journal, 2021).
